Assay results as given in PubChem BioAssay (NCI).
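Assay format: 96-well plates, 48-hour exposure. GI50 marks 50% less growth. TGI marks complete inhibition of growth.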

Key:
Assay in all cases: NCI-60 cell line screen, 48 h
[1] = system: PC-3 prostate
[2] = system: SNB-75 CNS
[3] = system: SNB-19 CNS
[4] = system: K-562 leukemia
[5] = system: HL-60(TB) leukemia
[6] = system: UACC-257 melanoma
[7] = system: COLO 205 colon
[8] = system: SK-MEL-28 melanoma
[9] = system: U251 CNS
[10] = system: HOP-92 NSCLC
[11] = system: OVCAR-5 ovarian
[12] = system: SF-295 CNS
[13] = system: 786-0 renal
[14] = system: SK-MEL-5 melanoma
[15] = system: MCF7 breast
[16] = system: NCI-H522 lung
[17] = system: IGROV1 ovarian
[18] = system: OVCAR-3 ovarian
[19] = system: A498 renal
[20] = system: OVCAR-8 ovarian
[21] = system: RPMI-8226 leukemia
[22] = system: MALME-3M melanoma
[23] = system: KM12 colon
[24] = system: A549 NSCLC
[25] = system: UO-31 renal
[26] = system: ACHN renal
[27] = system: SK-OV-3 ovarian
[28] = system: HCT-116 colon
[29] = system: SF-268 CNS
[30] = system: HT29 colon
[31] = system: DU-145 prostate
[32] = system: M14 melanoma
[33] = system: NCI-H226 lung
[34] = system: TK-10 renal
[35] = system: EKVX NSCLC
[36] = system: SW-620 colon
[37] = system: NCI/ADR-RES ovarian
[38] = system: UACC-62 melanoma
[39] = system: T-47D breast
[40] = system: HS 578T breast
[41] = system: LOX IMVI melanoma
[42] = system: HOP-62 NSCLC
[43] = system: MDA-MB-435
[44] = system: BT-549 breast
[45] = system: SF-539 CNS
[46] = system: OVCAR-4 ovarian
[47] = system: NCI-H23 lung
[48] = system: RXF 393 renal
[49] = system: NCI-H460 lung
[50] = system: MDA-MB-231 breast
[51] = system: HCT-15 colon
[52] = system: SK-MEL-2 melanoma
[53] = system: CAKI-1 renal
[54] = system: SR leukemia
[55] = system: SN12C renal
[56] = system: CCRF-CEM leukemia
[57] = system: HCC-2998 colon
[58] = system: MOLT-4 leukemia

Compound: CN(Cc1cc(Cl)cc(Cl)c1)CC(C(=O)c1ccccc1)c1ccccc1 (configuration not stated)
- TGI [1]: 29.3 µM
- TGI [2]: 31.3 µM
- TGI [3]: > 53 µM
- TGI [4]: > 100 µM
- TGI [5]: 47.4 µM
- TGI [6]: 14.9 µM
- TGI [7]: 16.3 µM
- TGI [8]: 9.8 µM
- TGI [9]: 4.17 µM
- TGI [10]: > 91.3 µM
- TGI [11]: 19.1 µM
- TGI [12]: > 100 µM
- TGI [13]: 10.4 µM
- TGI [14]: 29.9 µM
- TGI [15]: > 44.1 µM
- TGI [16]: 4.39 µM
- TGI [17]: > 58.3 µM
- TGI [18]: 3.65 µM
- TGI [19]: 64.8 µM
- TGI [20]: 21.2 µM
- TGI [21]: > 100 µM
- TGI [22]: 24 µM
- TGI [23]: 17.5 µM
- TGI [24]: > 100 µM
- TGI [25]: 19.9 µM
- TGI [26]: 2.16 µM
- TGI [27]: > 100 µM
- TGI [28]: 2.36 µM
- TGI [29]: 68.6 µM
- TGI [30]: 7.91 µM
- TGI [31]: 20.9 µM
- TGI [32]: 13.5 µM
- TGI [33]: 22.4 µM
- TGI [34]: 23 µM
- TGI [35]: 57.6 µM
- TGI [36]: 2.92 µM
- TGI [37]: 5.45 µM
- TGI [38]: 14.3 µM
- TGI [39]: 8.68 µM
- TGI [40]: > 57.7 µM
- TGI [41]: 5.91 µM
- TGI [42]: 71.3 µM
- TGI [43]: 16 µM
- TGI [44]: 17.6 µM
- TGI [45]: 23.2 µM
- TGI [46]: 12.4 µM
- TGI [47]: 7.06 µM
- TGI [48]: > 25.6 µM
- TGI [49]: > 100 µM
- TGI [50]: 23.5 µM
- TGI [51]: 1.84 µM
- TGI [52]: 29.7 µM
- TGI [53]: 9.07 µM
- TGI [54]: > 100 µM
- TGI [55]: 16.3 µM

Compound: C=C1C(=O)O[C@H]2[C@@H](O)[C@H](C)CCC[C@]3(C)O[C@H]3CC[C@@]3(C)O[C@@H]3C[C@@H]12
- TGI [1]: 14.5 µM
- TGI [2]: 15.2 µM
- TGI [56]: 5.22 µM
- TGI [3]: 27.7 µM
- TGI [4]: 3.25 µM
- TGI [5]: 2.03 µM
- TGI [7]: 10.3 µM
- TGI [8]: 8.91 µM
- TGI [9]: 15.7 µM
- TGI [57]: 10.9 µM
- TGI [11]: 12.5 µM
- TGI [12]: 15.6 µM
- TGI [13]: 12.5 µM
- TGI [14]: 10.5 µM
- TGI [15]: 7.87 µM
- TGI [16]: 2.85 µM
- TGI [17]: 12.1 µM
- TGI [18]: 10.6 µM
- TGI [19]: 14.4 µM
- TGI [20]: 13.4 µM
- TGI [21]: 50 µM
- TGI [23]: 15.3 µM
- TGI [24]: 18.3 µM
- TGI [25]: 12.4 µM
- TGI [27]: 25 µM
- TGI [28]: 6.52 µM
- TGI [29]: 14.9 µM
- TGI [30]: 12.1 µM
- TGI [31]: 12.9 µM
- TGI [32]: 12.4 µM
- TGI [33]: 14.5 µM
- TGI [58]: 7.15 µM
- TGI [35]: 11.3 µM
- TGI [36]: 5.05 µM
- TGI [37]: 19 µM
- TGI [38]: 8.8 µM
- TGI [39]: 19.9 µM
- TGI [40]: 42 µM
- TGI [42]: 14.3 µM
- TGI [43]: 10 µM
- TGI [44]: 4.5 µM
- TGI [45]: 13.3 µM
- TGI [46]: 9.85 µM
- TGI [47]: 13 µM
- TGI [48]: 7.13 µM
- TGI [50]: 10.8 µM
- TGI [51]: 4.74 µM
- TGI [52]: 16.6 µM
- TGI [53]: 13 µM
- TGI [54]: 5.99 µM
- TGI [55]: 13.2 µM

Compound: COc1ccc2c(c1)CC[C@H](O)/C2=C/c1cc(OC)c(OC)c(OC)c1
- GI50 [1]: 0.0855 µM
- TGI [1]: > 100 µM
- GI50 [2]: 0.0638 µM
- TGI [2]: > 100 µM
- GI50 [56]: 0.273 µM
- TGI [56]: > 100 µM
- GI50 [3]: 0.201 µM
- TGI [3]: > 100 µM
- GI50 [4]: 0.0492 µM
- TGI [4]: > 100 µM
- GI50 [5]: 0.192 µM
- TGI [5]: 0.86 µM
- GI50 [7]: 0.106 µM
- TGI [7]: 0.639 µM
- GI50 [8]: 3.9 µM
- TGI [8]: > 100 µM
- GI50 [9]: 0.143 µM
- TGI [9]: > 100 µM
- GI50 [57]: 0.16 µM
- TGI [57]: > 100 µM
- GI50 [10]: 16.3 µM
- TGI [10]: > 100 µM
- GI50 [11]: 0.906 µM
- TGI [11]: > 100 µM
- GI50 [13]: 0.156 µM
- TGI [13]: > 100 µM
- GI50 [14]: 0.0608 µM
- TGI [14]: 2.89 µM
- GI50 [15]: 0.0379 µM
- TGI [15]: > 100 µM
- GI50 [16]: 0.0824 µM
- TGI [16]: 6.16 µM
- GI50 [17]: 1.38 µM
- TGI [17]: > 100 µM
- GI50 [18]: 0.0757 µM
- TGI [18]: > 100 µM
- GI50 [19]: 0.0467 µM
- GI50 [20]: 0.36 µM
- TGI [20]: > 100 µM
- GI50 [21]: 1.82 µM
- TGI [21]: > 51.3 µM
- GI50 [22]: 0.771 µM
- TGI [22]: > 100 µM
- GI50 [23]: 0.093 µM
- TGI [23]: > 100 µM
- GI50 [24]: 0.245 µM
- TGI [24]: > 100 µM
- GI50 [25]: 0.222 µM
- TGI [25]: > 100 µM
- GI50 [26]: 0.227 µM
- TGI [26]: > 100 µM
- GI50 [27]: 0.138 µM
- TGI [27]: > 100 µM
- GI50 [28]: 0.104 µM
- TGI [28]: > 100 µM
- GI50 [29]: 0.198 µM
- TGI [29]: > 100 µM
- GI50 [30]: 0.107 µM
- TGI [30]: > 100 µM
- GI50 [31]: 0.156 µM
- TGI [31]: > 100 µM
- GI50 [32]: 0.101 µM
- TGI [32]: > 100 µM
- GI50 [33]: 2.95 µM
- TGI [33]: > 100 µM
- GI50 [34]: 34.4 µM
- TGI [34]: > 100 µM
- GI50 [58]: 0.351 µM
- TGI [58]: > 100 µM
- GI50 [35]: 1.21 µM
- TGI [35]: > 100 µM
- GI50 [36]: 0.0739 µM
- TGI [36]: > 100 µM
- GI50 [37]: 0.0639 µM
- GI50 [38]: 0.0403 µM
- TGI [38]: > 100 µM
- GI50 [39]: 0.0354 µM
- TGI [39]: 52.8 µM
- GI50 [40]: 0.101 µM
- TGI [40]: > 100 µM
- GI50 [41]: 0.207 µM
- TGI [41]: > 100 µM
- GI50 [42]: 0.0876 µM
- TGI [42]: > 100 µM
- GI50 [44]: 0.147 µM
- TGI [44]: 17.6 µM
- GI50 [45]: 0.0722 µM
- TGI [45]: 0.43 µM
- GI50 [46]: 0.952 µM
- TGI [46]: > 100 µM
- GI50 [47]: 0.162 µM
- TGI [47]: > 100 µM
- GI50 [49]: 0.107 µM
- TGI [49]: > 36.8 µM
- GI50 [50]: 0.604 µM
- TGI [50]: > 100 µM
- GI50 [51]: 0.0567 µM
- TGI [51]: > 100 µM
- GI50 [52]: 17.8 µM
- TGI [52]: > 100 µM
- GI50 [53]: 0.118 µM
- TGI [53]: > 100 µM
- GI50 [54]: 0.0546 µM
- TGI [54]: > 100 µM
- GI50 [55]: 0.998 µM
- TGI [55]: > 100 µM
